Data published in the Deep4Chem optical property database.

Test: solvent given as SMILES

## COC(=O)/C(C#N)=c1\s/c(=c2/s/c(=C(/C#N)C(=O)OC)c3cc(-c4ccc5c(c4)C(C)(C)c4ccccc4-5)sc23)c2sc(-c3ccc4c(c3)C(C)(C)c3ccccc3-4)cc12
In Cc1ccccc1
  fluorescence lifetime: 4.38 ns

## CCC1(CC)c2ccccc2-c2c1c1c(c3c2C(CC)(CC)c2cc(/C=C/c4cccs4)ccc2-3)C(CC)(CC)c2cc(/C=C/c3cccs3)ccc2-1
In C1CCOC1
  fluorescence lifetime: 1.5 ns

## CCOC(=O)C1=CN(c2ccccc2)C=C(C(=O)OCC)C1c1ccccc1
In C1CCOC1
  fluorescence lifetime: 8.98 ns
In CO
  fluorescence lifetime: 15.1 ns

## CC(C)(C)c1ccc(Oc2cc3c4c(cc(Oc5ccc(C(C)(C)C)cc5)c5c6c(Oc7ccc(C(C)(C)C)cc7)cc7c8c(cc(Oc9ccc(C(C)(C)C)cc9)c(c2c45)c86)C(=O)N(c2ccccc2)C7=O)C(=O)N(c2ccccc2)C3=O)cc1
In ClC(Cl)Cl
  fluorescence lifetime: 6 ns

## CC[n+]1nc2cc3c(cc2c2cc(C)ccc21)N(C)CCC3
In O
  fluorescence lifetime: 4.3 ns

## Cc1nc(-c2cc(N)ccc2O)n2c1CCCC2
In ClCCl
  fluorescence lifetime: 0.834 ns

## CC(=O)Nc1ccc(S(=O)(=O)O)c(/N=N/c2c(O)c3ccccc3n(C)c2=O)c1
In CS(C)=O
  fluorescence lifetime: 0.06 ns

## COc1ccc(-c2cc3c(s2)c(C(=O)c2ccccc2)cc(=O)n3Cc2ccccc2)cc1
In ClCCl
  fluorescence lifetime: 5.3 ns

## CC1=[N+]2C(=C(c3ccc(N(c4ccccc4)c4ccccc4)cc3)c3ccc(C)n3[B-]2(F)F)C=C1c1cc2n(c1)[B-](F)(F)[N+]1=CC=CC1=C2c1c(C)cc(C)cc1C
In C1CCCCC1
  fluorescence lifetime: 2.6 ns
In CCOC(C)=O
  fluorescence lifetime: 0.72 ns

## COC(=O)c1[nH]c(-c2ccc([N+](=O)[O-])cc2)c2nnc3ccc(OC)cc3c12
In ClCCl
  fluorescence lifetime: 2.44 ns

## O=C(O)c1ccccc1Nc1cccc(C(F)(F)F)c1
In C1CCCCC1
  fluorescence lifetime: 2.93 ns
In C1CCOC1
  fluorescence lifetime: 4.54 ns
In C1COCCO1
  fluorescence lifetime: 3.97 ns
In CC#N
  fluorescence lifetime: 4.04 ns
In CCOC(C)=O
  fluorescence lifetime: 4.65 ns
In CN(C)C=O
  fluorescence lifetime: 6.28 ns
In CO
  fluorescence lifetime: 5.08 ns
In ClC(Cl)Cl
  fluorescence lifetime: 3.86 ns

## CCN(CC)c1ccc(/C=N/Nc2ccc(C#N)cc2)c(O)c1
In CO
  fluorescence lifetime: 1.63 ns

## Cc1ccc(-c2ccc(/C=C/c3ccc(Br)n3C)cn2)nc1
In CC#N
  fluorescence lifetime: 0.66 ns

## COc1ccc(C2=C(c3ccc(OC)cc3)[Si](c3ccccc3)(c3ccccc3)c3ccccc32)cc1
In C1CCOC1
  fluorescence lifetime: 1.37 ns

## COC(C)CC1=N/C(=C\c2cccc(N(C)C)c2)C(=O)N1C (centres undefined)
In C1CCOC1
  fluorescence lifetime: 15.3 ns
In CC#N
  fluorescence lifetime: 7.7 ns
In CCCCCC
  fluorescence lifetime: 22.4 ns

## CCOC(=O)CCCCCn1c2ccc(OC)cc2c(=O)c2cc3c(cc21)c(=O)c1cc(OC)ccc1n3CCCCCC(=O)OCC
In CCO
  fluorescence lifetime: 13.4 ns

## O=C(O)CCCCCn1c2ccc(Br)cc2c(=O)c2cc(Br)ccc21
In O
  fluorescence lifetime: 6 ns

## CC1=CC(C)=[N+]2C1=C(c1c(-c3ccccn3)nc3ccccn13)c1c(C)cc(C)n1[B-]2(F)F
In ClCCl
  fluorescence lifetime: 6.9 ns

## Cc1cc(=O)oc2c1cc(Cl)c1occ(C)c12
In C1COCCO1
  fluorescence lifetime: 0.07 ns
In CC#N
  fluorescence lifetime: 0.27 ns
In CCO
  fluorescence lifetime: 0.21 ns
In OCC(F)(F)F
  fluorescence lifetime: 0.72 ns

## c1ccc2c(c1)-c1ccccc1C21c2ccccc2-c2c1c1c3ccccc3ccc1c1ccccc21
In Cc1ccccc1
  fluorescence lifetime: 3.14 ns

## Cc1c(-c2nc(-c3ccccc3)nc(-c3ccccc3)n2)ccc(-n2c3ccccc3c3cc4c(cc32)C2c3ccccc3C4c3ccccc32)c1C
In O=P(c1ccccc1)(c1ccccc1)c1ccccc1Oc1ccccc1P(=O)(c1ccccc1)c1ccccc1
  fluorescence lifetime: 10 ns

## CC(=O)Nc1ccc2c3c(cccc13)C(=O)c1ccccc1-2
In CC#N
  fluorescence lifetime: 10.3 ns
In CC(C)=O
  fluorescence lifetime: 9.7 ns
In CC(C)O
  fluorescence lifetime: 9.3 ns
In CCCCOCCCC
  fluorescence lifetime: 1.9 ns
In CCOC(C)=O
  fluorescence lifetime: 6.6 ns
In CCOCC
  fluorescence lifetime: 2.6 ns
In CO
  fluorescence lifetime: 8.3 ns
In Cc1ccccc1
  fluorescence lifetime: 2.8 ns
In Clc1ccccc1
  fluorescence lifetime: 5.9 ns
In N#Cc1ccccc1
  fluorescence lifetime: 9.8 ns
In O=C1CCCCC1
  fluorescence lifetime: 8.3 ns

## C(=C\c1nc2c3ccccc3c3ccccc3c2o1)/c1ccccc1
In CC#N
  fluorescence lifetime: 1.83 ns

## CCOC(=O)C1=CN(c2ccccc2)C=CC1c1ccccc1 (centres undefined)
In C1CCOC1
  fluorescence lifetime: 7.14 ns
In CO
  fluorescence lifetime: 7.55 ns

## C/C(=N\Nc1ccc(C#N)cc1)c1cccc(/C(C)=N/Nc2ccc(C#N)cc2)c1
In CO
  fluorescence lifetime: 1.27 ns

## C[n+]1cc2ccc3c[n+](C)c4ccccc4c3c2c2ccccc21
In CC#N
  fluorescence lifetime: 5.8 ns

## COc1cc(N(c2ccccc2)c2ccc(C=C(C#N)C#N)c(OC)c2)ccc1C=C(C#N)C#N
In C1COCCO1
  fluorescence lifetime: 0.925 ns
In CC#N
  fluorescence lifetime: 0.026 ns
In CC(C)=O
  fluorescence lifetime: 0.049 ns
In CCOC(C)=O
  fluorescence lifetime: 0.22 ns
In CN(C)C=O
  fluorescence lifetime: 0.23 ns
In CO
  fluorescence lifetime: 0.11 ns
In Cc1ccccc1
  fluorescence lifetime: 0.051 ns
In ClC(Cl)Cl
  fluorescence lifetime: 0.23 ns
In ClCCl
  fluorescence lifetime: 0.15 ns

## CCc1ccc(-n2c3ccccc3c3cc4c(cc32)c2ccccc2n4-c2ccc(CC)s2)s1
In ClC(Cl)Cl
  fluorescence lifetime: 0.63 ns

## O=Cc1ccc(C#CC(C#Cc2ccc(C=O)s2)=Cc2ccc(C=C(C#Cc3ccc(C=O)s3)C#Cc3ccc(C=O)s3)cc2)s1
In ClC(Cl)Cl
  fluorescence lifetime: 0.8 ns

## CC1=CC(C)=[N+]2C1=Cc1cccn1[B-]2(F)F
In CCCCCC
  fluorescence lifetime: 6.21 ns
In CO
  fluorescence lifetime: 6.34 ns
In ClCCl
  fluorescence lifetime: 5.89 ns

## N#CC(C#N)=C(c1ccc(-n2ccc3ccccc32)cc1)c1ccc(-n2ccc3ccccc32)cc1
In Cc1ccccc1
  fluorescence lifetime: 5.2 ns

## CC1=C(c2ccccc2)C(C)=[N+]2C1=C(c1ccccc1)c1c(C)c(-c3ccccc3)c(C)n1[B-]2(F)F
In Cc1ccccc1
  fluorescence lifetime: 4.1 ns

## FC(F)(F)C(F)(F)C(F)(F)C1=NC2=C(Br)C=C3c4cc(Br)c5nc(C(F)(F)C(F)(F)C(F)(F)F)nc6c(Br)cc(c4c56)=C4C=C(Br)C(=N1)C2C34 (centres undefined)
In C1CCOC1
  fluorescence lifetime: 2.1 ns

## CN(C)c1ccc(C2=Cc3cc(Cl)nc[n+]3[B-](F)(F)O2)cc1
In C1CCOC1
  fluorescence lifetime: 2.6 ns
In CC#N
  fluorescence lifetime: 0.3 ns
In CCCCCC
  fluorescence lifetime: 1.9 ns
In Cc1ccccc1
  fluorescence lifetime: 2.3 ns
In ClC(Cl)Cl
  fluorescence lifetime: 2.5 ns
In ClCCl
  fluorescence lifetime: 2.8 ns
